# Measurements: patent US8703125B2, “Modulation of the Vps10p-domain receptor family for the treatment of mental and behavioural disorders” (H. Lundbeck A/S, priority 2008, dated 2014)
# “Also recorded” adds a separate entry of the source.
# Tests used:
# [1] = tested on: Sortilin −/− hippocampal CA1 synapses; experiment: NMDA receptor-dependent LTD in Sortilin −/− hippocampal slices (f-EPSP recording); format: cell-based, mouse; conditions: 40 ng/ml for at least 1 h before recording and throughout, LFS 1 Hz, 15 min
# Protocol: FIG. 3: Impaired NMDA receptor-dependent LTD in Sortilin −/− and SorCS1 −/− mice. A, lack of LTD in sortilin −/− hippocampal CA1 synapses by the application of LFS (1 Hz, 15 min) to the Schaffer collaterals. In wt hippocampal CA1 synapses a LFS induces synaptic depression. B, rescue of NMDA receptor-dependent LTD in Sortilin −/− hippocampal CA1 synapses by cleavage-resistant proBDNF. […] LFS (1 Hz, 15 min) was applied to the Schaffer collaterals. In Sortilin −/− hippocampal slices incubated with control vehicle the LTD was still impaired. C, a similar experiment showing rescue of NMDA receptor-dependent LTD in sortilin −/− hippocampal CA1 synapses by 40 ng/ml purified soluble Sortilin. D, a similar experiment showing lack of LTD in SorCS1 −/− hippocampal CA1 synapses. […]
# SorCS2 −/− mice were backcrossed onto a C57BL/6 background for more than ten generations and wild type C57BL/6 mice were used as control. […] After a recovery period of at least two h, the slices were moved to an interface chamber exposed to a humidified atmosphere of 95% O2 and 5% CO2 and we recorded field Exitatory Post-Synaptic Potentials (f-EPSP) using an Axoclamp-2B amplifier (Axon Instruments) with an artificial cerebral spinal fluid (ACSF; in mM: 126 NaCl, 2.5 KCl, 1.25 NaH2PO4, 2.5 CaCl2, 1.3 MgCl2, 10 D-glucose)-filled glass microelectrode (10-15 MΩ) positioned in the stratum radiatum of hippocampal area CA1. […]
# [2] = tested on: patient suffering from a mental and behavioural disorder; experiment: Passive delivery device implanted into the brain of a patient with a mental and behavioural disorder (Examples 18, 19); format: in vivo, human; conditions: device for passive delivery surgically implanted into the brain
# From the text: (§1) The soluble domain of human Sortilin is expressed recombinantly at a large scale in a mammalian cell culture and is subsequently purified by for example immunoaffinity chromatography. A device for passive delivery containing purified soluble Sortilin is surgically implanted into the brain of a patient suffering from a mental and behavioural disorder. Good effect is obtained and the patient is set on lifelong treatment.
# as §1, with “chromatography. Similarly, proBDNF is expressed and purified at a large scale. Soluble Sortilin and proBDNF is incubated together to form a preformed Sortilin:proBDNF complex.” for “chromatography.”, “preformed Sortilin:proBDNF” for “soluble Sortilin”
# [3] = tested on: granule cells of the dentate gyrus; experiment: GABAergic activity (sIPSCs), whole-cell patch-clamp in acute brain slices; format: cell-based, mouse; conditions: for GABAergic activity (in words): Sortilin −/− mouse brain slices
# Protocol: FIG. 8: Neuronal GABA activity is increased in Sortilin and SorCS2 −/− mice, and can be rescued by BDNF. A, model describing how dentate gyrus granule cells are under powerful inhibitory control by GABAergic basket cells. The basket cell excitability is in turn depressed by BDNF released from the granule cells (Holm et al. Submitted, 2008) B, the GABAergic activity was assessed by electrophysiological recordings from single neurons in an in vitro mouse brain slice preparation (P16-P20). In each experimental condition, the frequency of spontaneous inhibitory postsynaptic currents (sIPSCs) was measured in Hz. In control mice (wildtype, WT) the GABAergic activity was 2.96±0.53 Hz (n=33 cells). In Sortilin −/− (Sortilin KO) mice, this activity increased to 6.15±0.80 Hz (n=25 cells). In rescue experiments, exogenous BDNF (20 ng/ml) reversed the GABA activity of Sortilin KO mice back to WT levels, reaching 2.66±1.4 Hz (n=3 cells). For comparison, the GABAergic activity in SorCS2 −/− (SorCS2 KO) mice was 5.68±0.7 Hz (n=6), highlighting the importance of Vps10p proteins in these inhibitory cell functions. Error bars indicate S.E.M.
# 3-4 week wildtype and Sortilin deficient mice were examined for neurophysiological in vitro correlates of anxiety/depression like behavior. In fresh 350 μm thick brain slices, inhibitory GABAergic synaptic input to hippocampal granule cells were quantified in living tissues. Electrophysiological patch-clamp recordings were carried out from acute brain slices from WT, Sortilin and Sorcs2 knockout (KO) mice. Following deep isoflurane anesthesia, male mice were sacrifized and the brain was carefully dissected out and cooled. 350 um thick brain slices were cut on a Vibratome 3000 Plus, and the tissue rested in O2/CO2 bubbled Ringer solution for at least 1 hour before experimentation (Drasbek and Jensen 2006). Whole-cell patch-clamp recordings were carried out at 33° C. from the soma of identified granule cells of the dentate gyrus (Jensen and Mody 2001). Under conditions of blocked glutamatergic excitation, GABAergic activity was apparent as spontaneous inhibitory postsynaptic currents (sIPSCs) that could be blocked by the GABAA receptor antagonist SR95531 (100 μM). For each cell, the frequency of sIPSCs was analyzed and frequencies were pooled within each experimental group. In rescue experiments, BDNF (brain-derived neurotrophic factor, 20 ng/ml) was perfused to the brain slice for at least 5 min and the GABAergic activity was assessed. […] Subsequently, the pathophysiological neuronal activity was restored in Sortilin deficient mouse brain slices by administering exogenous brain-derived neurotrophic factor (BDNF 20 ng/ml) to the tissue bathing solution (FIG. 8B).
molecule,measurement,setting,value
"soluble Sortilin: purified soluble Sortilin, the luminal (Vps10p-domain) part of the receptor",NMDA receptor-dependent LTD,[1],rescued
same,NMDA receptor-dependent LTD,[1]; listed as recombinant soluble Sortilin,rescued
same,effect of treatment in the patient,[2],Good effect
"Br.COc1ccc(-c2ccc(=N)n(CCCC(=O)O)n2)cc1 [SR95531, reference compound]",spontaneous inhibitory postsynaptic currents (sIPSCs),"[3]; 100 μM, blocked glutamatergic excitation",blocked
mature BDNF: mature brain-derived neurotrophic factor (protein) HSDPARRGELSVCDSISEWVTAADKKTAVDMSGGTVTVLEKVPVSKGQLKQYFYETKCNPMGYTKEGCRGIDKRHWNSQCRTTQSYVRALTMDSKKRIGWRFIRIDTSCVCTLTIKRGR,frequency of spontaneous inhibitory postsynaptic currents (sIPSCs),"[3]; Sortilin KO mouse brain slices, 20 ng/ml, n=3 cells",2.66±1.4 Hz
same,GABAergic activity (in words),[3]; 20 ng/ml,restored
same,GABAergic activity (in words),"[3]; 20 ng/ml, listed as exogenous BDNF",normalizes; also recorded: reversed
